The target of experiment [1] is GDP-bound HRAS wild-type protein (Homo sapiens, UniProt P01112). Description: Binding to HRAS by surface plasmon resonance (SPR), Single Cycle Kinetics. To be noted: SPR; for HRAS/KRAS (ratio of KD value for HRAS to KD value for KRAS) / HRAS/KRAS (ratio of KD value with respect to HRAS to KD value with respect to KRAS): GDP-bound HRAS wild-type vs GDP-bound KRAS wild-type. (SPR reads the build-up and loss of mass on a sensor chip optically.)

Experiment [2] addresses GDP-bound NRAS wild-type protein (Homo sapiens, UniProt P01111). Description: Binding to NRAS by surface plasmon resonance (SPR), Single Cycle Kinetics. To be noted: SPR; for NRAS/KRAS (ratio of KD value for NRAS to KD value for KRAS) / NRAS/KRAS (ratio of KD value with respect to NRAS to KD value with respect to KRAS): GDP-bound NRAS wild-type vs GDP-bound KRAS wild-type.

GDP-bound NRAS wild-type protein, sequence (P01111 whole entry): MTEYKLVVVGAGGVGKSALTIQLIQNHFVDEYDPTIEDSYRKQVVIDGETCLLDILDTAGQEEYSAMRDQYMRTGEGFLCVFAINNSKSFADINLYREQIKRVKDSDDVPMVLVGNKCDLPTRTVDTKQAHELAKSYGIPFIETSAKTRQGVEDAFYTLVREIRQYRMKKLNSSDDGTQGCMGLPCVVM
GDP-bound HRAS wild-type protein, sequence (P01112 whole entry): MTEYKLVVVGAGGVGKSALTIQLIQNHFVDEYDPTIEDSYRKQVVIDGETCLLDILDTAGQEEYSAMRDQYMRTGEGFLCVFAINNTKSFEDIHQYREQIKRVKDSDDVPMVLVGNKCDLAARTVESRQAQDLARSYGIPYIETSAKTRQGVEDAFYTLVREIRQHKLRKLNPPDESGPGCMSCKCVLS

In the case of `CCO[C@@H]1C[C@H]2C(=O)NC3(CC(C)(C)C3)C(=O)N(C)[C@@H](C3CCCC3)C(=O)N(C)[C@H](C(=O)N(C)C)CC(=O)N(C)[C@H]3CCCCCCc4ccc(cc4)C[C@@H](C(=O)N(C)CC(=O)N[C@@H](CCc4ccc(Cl)c(Cl)c4)C(=O)N2C1)N1CC/C=C\C[C@@H](C1=O)N(C)C(=O)CN(C)C(=O)[C@H]([C@@H](C)CC)NC3=O` [PP3071], the “HRAS/KRAS (ratio of KD value with respect to GDP-bound HRAS wild-type protein to KD value with respect to KRAS)” value in experiment [1] (GDP-bound wild-type proteins) was “B (a compound having 3 or more and less than 10 is denoted as B)”. The “NRAS/KRAS (ratio of KD value with respect to GDP-bound NRAS wild-type protein to KD value with respect to KRAS)” value in experiment [2] (GDP-bound wild-type proteins) was “A (a compound having 10 or more and less than 20 is denoted as A)”.
Consider `CC[C@H](C)[C@@H]1NC(=O)[C@H](CC(C)C)N(C)C(=O)C[C@@H](C(=O)N2CCC2)N(C)C(=O)[C@H](C2CCCC2)N(C)C(=O)C2(CCCC2)NC(=O)[C@@H]2CCCN2C(=O)[C@H](CCc2cc(F)c(C(F)(F)F)c(F)c2)NC(=O)CN(C)C(=O)[C@H](Cc2ccc(C(F)(F)F)cc2)N2CCCC[C@@H](C2=O)N(C)C(=O)CN(C)C1=O` [PP0570], for which the “HRAS/KRAS (ratio of KD value with respect to GDP-bound HRAS wild-type protein to KD value with respect to KRAS)” value in experiment [1] is “B (a compound having 3 or more and less than 10 is denoted as B)”. Moreover, the “NRAS/KRAS (ratio of KD value with respect to GDP-bound NRAS wild-type protein to KD value with respect to KRAS)” value in experiment [2] was “B (a compound having 3 or more and less than 10 is denoted as B)”.
For the molecule `CCCN(C)C(=O)[C@@H]1CC(=O)N(C)[C@@H](C2CCC2)C(=O)N[C@@H]([C@@H](C)CC)C(=O)N(C)CC(=O)N(C)[C@H]2C/C=C\CCN(C2=O)[C@@H](Cc2ccc(C(F)(F)F)cc2)C(=O)N(C)CC(=O)N[C@@H](CCc2ccc(C(F)(F)F)c(OC)c2)C(=O)N2C[C@H](OCC)C[C@H]2C(=O)NC2(CCC2)C(=O)N(C)[C@@H](C2CCCC2)C(=O)N1C` [PP2023], the “HRAS/KRAS (ratio of KD value for HRAS to KD value for KRAS)” value in experiment [1] was “B (a compound having 3 or more and less than 10 is denoted as B)”. The “NRAS/KRAS (ratio of KD value for NRAS to KD value for KRAS)” value in experiment [2] is “A (a compound having 10 or more and less than 20 is denoted as A)”.
As to `CCO[C@@H]1C[C@H]2C(=O)NC3(CC(C)(C)C3)C(=O)N(C)[C@@H](C3CCCC3)C(=O)N(C)[C@H](C(=O)N(C)C)CC(=O)N(C)[C@@H](CC)C(=O)N[C@@H]([C@@H](C)CC)C(=O)N(C)CC(=O)N(C)[C@H]3C/C=C\CCN(C3=O)[C@@H](Cc3ccc(Cl)cc3F)C(=O)N(C)CC(=O)N[C@@H](CCc3cc(F)c(C(F)(F)F)c(F)c3)C(=O)N2C1` [PP2048], the “HRAS/KRAS (ratio of KD value with respect to HRAS to KD value with respect to KRAS)” value in experiment [1] is “B (a compound having 3 or more and less than 10 is denoted as B)”. In addition, the “NRAS/KRAS (ratio of KD value with respect to NRAS to KD value with respect to KRAS)” value in experiment [2] is “A (a compound having 10 or more and less than 20 is denoted as A)”.
For `CCC[C@H]1C(=O)N[C@@H]([C@@H](C)CC)C(=O)N2CCC[C@H]2C(=O)N(C)[C@H]2C/C=C\CCN(C2=O)[C@@H](Cc2ccc(C)cc2)C(=O)N(C)CC(=O)N[C@@H](CCc2ccc(C(F)(F)F)c(OC)c2)C(=O)N2C[C@H](OCC)C[C@H]2C(=O)N(C)C2(CCC2)C(=O)N(C)[C@@H](C(CC)CC)C(=O)N(C)[C@H](C(=O)N(C)C)CC(=O)N1C` [PP2329], the “HRAS/KRAS (ratio of KD value with respect to HRAS to KD value with respect to KRAS)” value in experiment [1] is “A (a compound having 10 or more and less than 20 is denoted as A)”. Moreover, the “NRAS/KRAS (ratio of KD value with respect to NRAS to KD value with respect to KRAS)” value in experiment [2] is “A (a compound having 10 or more and less than 20 is denoted as A)”.
`CCC(CC)[C@H]1C(=O)N(C)[C@H](C(=O)N(C)C)CC(=O)N(C)[C@@H](CC2CC2)C(=O)N[C@@H]([C@@H](C)CC)C(=O)N(C)CC(=O)N(C)[C@H]2C/C=C\CCN(C2=O)[C@@H](CC2CCC(F)(F)CC2)C(=O)N(C)CC(=O)N[C@@H](CCc2cc(F)c(C(F)(F)F)c(F)c2)C(=O)N2C[C@@H](C)C[C@H]2C(=O)NC2(CC(C)(C)C2)C(=O)N1C` [PP2500]: in experiment [1], the “HRAS/KRAS (ratio of KD value with respect to HRAS to KD value with respect to KRAS)” value is “A (a compound having 10 or more and less than 20 is denoted as A)”. For the same molecule, the “NRAS/KRAS (ratio of KD value with respect to NRAS to KD value with respect to KRAS)” value in experiment [2] is “A (a compound having 10 or more and less than 20 is denoted as A)”.
In the case of `CCO[C@@H]1C[C@H]2C(=O)NC3(CC(C)(C)C3)C(=O)N(C)[C@@H](C(CC)CC)C(=O)N3CCC[C@@H]3CC(=O)N(C)[C@@H](CC3CC3)C(=O)N[C@@H]([C@@H](C)CC)C(=O)N(C)CC(=O)N(C)[C@H]3C/C=C\CCN(C3=O)[C@@H](Cc3ccc(C(F)(F)F)cc3)C(=O)N(C)CC(=O)N[C@@H](CCc3cc(F)c(C(F)(F)F)c(F)c3)C(=O)N2C1` [PP1610], the “HRAS/KRAS (ratio of KD value for HRAS to KD value for KRAS)” value in experiment [1] is “A (a compound having 10 or more and less than 20 is denoted as A)”. Moreover, in experiment [2], the “NRAS/KRAS (ratio of KD value for NRAS to KD value for KRAS)” value is “A (a compound having 10 or more and less than 20 is denoted as A)”.
